US8101389B2, “Bacterial glutamine synthetases and methods of use” (Athenix Corp, priority 2006, dated 2012)
Entries after “also recorded” stand apart in the source; their conditions may differ.

How the values were obtained:
[1] = system: Serratia marcescens ATX 20345; test: growth of strain ATX 20345 in glufosinate; type: cell-based; details: minimal medium; growth above 50 mM was not tested
Protocol: (§1) A glufosinate resistant bacterial strain (ATX 20345) was isolated from a soil sample via a soil suspension by placing approximately 0.01 grams soil in 500 μl sterile water. The soil suspension was vortexed, and 20 μl was used to inoculate a 2.5 ml minimal medium culture supplemented with 5 mM glufosinate (Riedel-de Habël, available through Sigma-Aldrich, St. Louis, Mo.). The minimal medium contains the following ingredients (per 1 liter): 10 grams sucrose, 1 ml 0.8M MgSO4, 1 ml 0.1M CaCl2, 1 ml trace elements, 2.38 grams KH2PO4, 5.64 grams K2HPO4. The pH is adjusted to 7.0, and the solution is sterilized with a 0.2 μm filter. Trace elements consist of (per 100 ml) 0.1 g FeSO4.7H2O, 0.5 mg CuSO4.5H2O, 1.0 mg H3BO3, 1.0 mg MnSO4.5H2O, 7.0 mg ZnSO4.7H2O, 1.0 mg MoO3, 4.0 g KCl. No additional nitrogen source was provided in the medium. Cultures were grown at 21° C. on a rotary shaker for 3 days then transferred to fresh minimal medium containing 5 mM glufosinate and incubated at 21° C. After 2 days, the cultures were used to inoculate fresh minimal medium with 5 mM glufosinate. After 2 days, the cultures were plated onto Luria Bertani (LB) agar and then restruck for isolation. […] Colonies on LB agar are pinkish-red, raised, circular, and 1-2 mm in diameter. ATX20345 was typed by fatty acid analysis (as known in the art), and determined to be a strain of Serratia marcescens. […]

[2] = system: E. coli cells with AGS1 variant AGS1m2 (pAX3422), F81S, P185S, G218S, I303N, SEQ ID NO:6; test: growth of E. coli on herbicide plates, ags1m2; type: cell-based; details: 200 mM glufosinate
Protocol: Mutants of the bacterial glutamine synthetase gene ags1 (SEQ ID NO:1) were created by error-prone mutagenesis using the GENEMORPH® Random Mutagenesis kit, and also using oligo-directed mutagenesis as known in the art. However, many methods are available for creating libraries of mutants. The resulting mutants were cloned into a pUC19 vector, electroporated into either XL-1 or DH5 alpha E. coli cells, and selected for growth on M63+ agar media containing antibiotic and 2, 10, or 20 mM glufosinate. Twenty-two clones were identified as growing on 20 mM glufosinate, and picked for further analysis.
ags1m2 was mutagenized by error-prone mutagenesis using GENEMORPH® II Random Mutagenesis kit (Stratagene) according to manufacturer's instructions. Mutagenized PCR product was digested with Sac I and Hind III, and ligated into a pUC vector, similarly digested with Sac I and Hind III. Ligations were transformed into E. coli cells, and plated onto M63+ plates containing antibiotic, and 125 mM glufosinate. Clones growing on 125 mM glufosinate plates were retested on 200 mM glufosinate plates, and compared to similar platings of ags1m1 and ags1m2. […] The DNA sequence of the ags open reading frame in pAX3439 was sequenced, and the gene designated as ags1m16. The DNA sequence of ags1m16 is represented herein as SEQ ID NO:31, and the amino acid sequence is represented herein as SEQ ID NO:32. […]

ATX 20345 = test: Growth of strain ATX 20345 in minimal medium with glufosinate; type: cell-based, Serratia marcescens; details: no other nitrogen source, 21° C.
Protocol: as §1

[3] = system: E. coli DH5α cells with TKH2; test: growth of DH5α with TKH2 on M63 minimal plates with glufosinate; type: cell-based; details: 20 mM glufosinate
Protocol: To obtain the gene(s) responsible for the strain's resistance to glufosinate, a small insert plasmid genomic library was prepared from strain ATX 20345. Genomic DNA was extracted from a fresh, overnight LB culture using SDS, proteinase K cell lysis followed by CTAB/NaCl, phenol-chloroform extractions. Partial digests were performed on the genomic DNA using 0.1 units Sau3A I at 37° C. for 30 minutes followed by the addition of EDTA and incubation at 65° C. for 20 minutes to halt the reaction. Resultant DNA was approximately 4-12 kb in size. The DNA was gel purified, treated with T4 polynucletide kinase, then ligated into BamH I digested pUC18 vector. Ligations were transformed into DH5a and plated directly on M63 minimal media plates containing 20 mM glufosinate, 100 μg/ml carbenicillin, and 0.1 mM IPTG. After several days, 4 colonies had appeared, tentatively named TKH1-4. They were grown up and plasmid DNA was isolated and analyzed by digestion with EcoR I+ Hind III, and Pst I/Sac Ito compare inserts. Though all four clones contained inserts, TKH2 and TKH3 were identical by restriction digest analysis, and both contained inserts of approximately 4.9 kb.
To reconfirm that TKH2 and TKH3 confer resistance to 20 mM glufosinate, the purified plasmids were retransformed into DH5α cells. pUC18 was retransformed as a negative control. […]

[4] = system: ags1 glutamine synthetase enzyme; test: Enzymatic activity of purified 6Xhis-tagged glutamine synthetases with and without glufosinate; type: biochemical, Serratia marcescens; details: 100 uM glufosinate
Description: ags1m1 (pAX3421) and ags1m2 (pAX3422) were subcloned into E. coli expression vector pRSF1B (Invitrogen) so as to create an N-terminus encoding a 6Xhis tag, purified and characterized kinetically.

[5] = biological target: Serratia marcescens glutamine synthetase AGS1 variant AGS1(AD-), tyrosine 398 to phenylalanine, SEQ ID NO:44 (Serratia marcescens, UniProt A0A0F6KS08, Y398F); test: enzymatic assay, kinetics of AGS1(AD-); type: biochemical
Sequence of Serratia marcescens glutamine synthetase AGS1 variant AGS1(AD-), tyrosine 398 to phenylalanine, SEQ ID NO:44 (A0A0F6KS08 whole entry Y398F): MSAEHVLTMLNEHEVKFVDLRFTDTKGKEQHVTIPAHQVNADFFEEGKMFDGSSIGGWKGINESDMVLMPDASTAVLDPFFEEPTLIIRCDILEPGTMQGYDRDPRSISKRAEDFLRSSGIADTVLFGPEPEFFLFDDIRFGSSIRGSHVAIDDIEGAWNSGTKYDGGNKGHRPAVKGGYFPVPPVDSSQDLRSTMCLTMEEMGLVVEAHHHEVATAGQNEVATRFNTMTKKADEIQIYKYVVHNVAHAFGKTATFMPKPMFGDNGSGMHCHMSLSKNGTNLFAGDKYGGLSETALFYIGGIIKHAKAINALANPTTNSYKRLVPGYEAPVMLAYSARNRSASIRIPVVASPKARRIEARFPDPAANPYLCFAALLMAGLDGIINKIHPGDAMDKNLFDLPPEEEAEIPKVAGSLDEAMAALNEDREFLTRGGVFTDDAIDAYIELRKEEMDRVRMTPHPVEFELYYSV
Protocol: ags1(ad-) (SEQ ID NO:43) encoding the AGS1(AD-) protein (SEQ ID NO:44), is a variant of ags1 in which the putative adenylylation site has been removed by mutating the tyrosine at position 398 of AGS1 to a phenylalanine by site directed mutagenesis.
The unmodified enzyme (AGS1) was compared to AGS1(AD-) and AGS1m17(AD-) by carrying out enzymatic assays on both enzymes following purification from E. coli. A glutamine synthetase enzyme from E. coli (GlnA) was also tested.

[6] = system: E. coli cells with AGS1 variant AGS1m16 (pAX3439), F81S, P185S, H212N, G218S, I303N, SEQ ID NO:32; test: growth of E. coli on glufosinate plates, ags1m16; type: cell-based
Protocol: ags1m2 was mutagenized by error-prone mutagenesis using GENEMORPH® II Random Mutagenesis kit (Stratagene) according to manufacturer's instructions. Mutagenized PCR product was digested with Sac I and Hind III, and ligated into a pUC vector, similarly digested with Sac I and Hind III. Ligations were transformed into E. coli cells, and plated onto M63+ plates containing antibiotic, and 125 mM glufosinate. Clones growing on 125 mM glufosinate plates were retested on 200 mM glufosinate plates, and compared to similar platings of ags1m1 and ags1m2. […] The DNA sequence of the ags open reading frame in pAX3439 was sequenced, and the gene designated as ags1m16. The DNA sequence of ags1m16 is represented herein as SEQ ID NO:31, and the amino acid sequence is represented herein as SEQ ID NO:32. AGS1m16 differs from AGS1m2 at a single amino acid at position H212 of the protein, which is modified from Histidine (‘H’) to Asparagine (‘N’), and contains a total of five amino acid changes relative to the wild-type AGS1 (see FIG. 1 and Table 3).
Clones expressing AGS1m17, AGS1m18, AGS1m19, or AGS1m20 were all found to be able to grow on plates containing 375 mM glufosinate, whereas no growth of clones expressing AGS1m16 was observed on plates containing 375 mM glufosinate.

CP(=O)(O)CCC(N)C(=O)O (stereo not shown) [glufosinate]
glufosinate concentration through which ATX 20345 grows well [1]: ≥ 50 mM
growth on 200 mM glufosinate plates [2]: did not grow
growth of ATX 20345 in the presence of glufosinate (ATX 20345): ability to grow in the presence of 5 mM glufosinate; also recorded: grows well through 50 mM
growth in the presence of glufosinate [3]: grew in the presence of glufosinate
inhibition of wild type ags1 glutamine synthetase enzyme [4]: completely inhibited
Ki [5]: 13 µM
(Kcat*Ki)/Km ([5]; Table 5, Km glutamate, Ki glufosinate): 12.59
growth on 200 mM glufosinate plates ([6]; 200 mM glufosinate): ability to grow
growth on plates containing 375 mM glufosinate ([6]; 375 mM glufosinate): no growth
glufosinate concentrations up to which cells are able to grow ([6]; cells containing AGS1m16): 200 mM
